Key:
[1] = target: human dopamine D2L receptor (Homo sapiens, UniProt P14416); assay: cAMP functional assay, dopamine D2L (CHO-K1, HTRF); assay type: cell-based; parameters: host or cells: CHO-K1 co-expressing mitochondrial apoaequorin and Gα16; details: for inhibition at 0.005 µM: antagonist concentration 5 nM; for inhibition at 0.05 µM: antagonist concentration 50 nM; for inhibition at 0.5 µM: antagonist concentration 500 nM; for inhibition at 5 µM: antagonist concentration 5000 nM; for inhibition at 15 µM: antagonist concentration 15000 nM
Description: To study the functional activity of compounds of the invention on the human recombinant dopamine D2L with Aequorin, GTPγS and cAMP functional assays and on the human recombinant serotonin 5-HT2A receptor with Aequorin, CHO-K1 cell lines expressing D2L or 5-HT2A recombinant receptor, mitochondrial apoaequorin and Gα16 were used for the Aequorin assay. CHO-K1 cell line expressing the recombinant D2L receptor was used for the cAMP assay and was amplified to prepare membranes used for the GTPγS assay.
The test was performed in 96 well plates. For agonist testing, 12 μL of cells (2,500 cells/well) were mixed with 6 μL of increasing concentrations of test compound or reference agonist and 6 μL of Forskolin […] (Calbiochem, cat n^o 344270). For antagonist testing, 12 μL of cells (2,500 cells/well) were mixed with 6 μL of test compound or reference antagonist at increasing concentrations. After incubation of 10 min at room temperature, 6 μL of a mix of Forskolin […] final concentration and the reference agonist at a final concentration corresponding to the EC80 were added. The plates were then incubated for 30 min at room temperature.

C57Bl/6J mice = assay: PCP-induced hyperactivity, open field test; assay type: in vivo, mouse; details: p.o. 30 min prior to PCP (5.0 mg/kg i.p.), 90 min. test
Experimental: One exemplary model for testing the activity of one or more compounds described herein to treat and/or prevent and/or delay the onset and/or development of schizophrenia employs phencyclidine (PCP), which is administered to the animal (e.g., non-primate (rat) or primate (monkey)), resulting in dysfunctions similar to those seen in schizophrenic humans. See Jentsch et al., 1997, Science 277:953-955 and Piercey et al., 1988, Life Sci. 43(4):375-385). Standard experimental protocols may be employed in this or in other animal models. One protocol involves PCP-induced hyperactivity.
Male C57Bl/6J mice from Jackson Laboratories (Bar Harbor, Me.) were used. Mice were received at 6-weeks of age. Upon receipt, mice were assigned unique identification numbers (tail marked) and were group housed with 4 mice/cage in OPTIMICE ventilated cages. All animals remained housed in groups of four during the remainder of the study. All mice were acclimated to the colony room for at least two weeks prior to testing and were subsequently tested at an average age of 8 weeks of age. During the period of acclimation, mice were examined on a regular basis, handled, and weighed to assure adequate health and suitability. Animals were maintained on a 12 h/12 h light/dark cycle. The room temperature was maintained between 20 and 23° C. with a relative humidity maintained between 30% and 70%. Food and water were provided ad libitum for the duration of the study. In each test, animals were randomly assigned across treatment groups.
The following compounds were used for this study: 1) Compound Nos 83, 88, 90 (0.03, 0.1, 0.3, 1, 3, 10 & 30 mg/kg) was dissolved in 5% PEG-200 in sterile water and administered p.o. 30 min prior to PCP injection; 2) Clozapine (1.0 mg/kg) was dissolved in 10% DMSO and administered i.p. 30 min prior to phencyclidine (PCP) injection; 3) PCP (5.0 mg/kg) was dissolved in sterile water and administered i.p. immediately before the 60 min. test. All compounds were administered at a dose volume of 10 mL/kg.
The open filed (OF) test assesses locomotor behavior, i.e. to measure mouse locomotor activity at baseline and in response to pharmacological agents. The open field chambers are Plexiglas square chambers (27.3×27.3×20.3 cm; Med Associates Inc., St Albans, Vt.) surrounded by infrared photobeams (16×16×16) to measure horizontal and vertical activity. […] Distance traveled was measured from horizontal beam breaks as the mouse moved whereas rearing activity was measured from vertical beam breaks. […]
Data were analyzed by analysis of variance (ANOVA) followed by post-hoc comparisons with Fisher Tests when appropriate. Baseline activity was measured during the first 30 min. of the test prior to PCP injection. PCP-induced activity was measured during the 60 min. following PCP injection. […]

[2] = antagonist concentration 150 nM
[3] = antagonist concentration 1500 nM

Sequence of human dopamine D2L receptor (P14416 whole entry): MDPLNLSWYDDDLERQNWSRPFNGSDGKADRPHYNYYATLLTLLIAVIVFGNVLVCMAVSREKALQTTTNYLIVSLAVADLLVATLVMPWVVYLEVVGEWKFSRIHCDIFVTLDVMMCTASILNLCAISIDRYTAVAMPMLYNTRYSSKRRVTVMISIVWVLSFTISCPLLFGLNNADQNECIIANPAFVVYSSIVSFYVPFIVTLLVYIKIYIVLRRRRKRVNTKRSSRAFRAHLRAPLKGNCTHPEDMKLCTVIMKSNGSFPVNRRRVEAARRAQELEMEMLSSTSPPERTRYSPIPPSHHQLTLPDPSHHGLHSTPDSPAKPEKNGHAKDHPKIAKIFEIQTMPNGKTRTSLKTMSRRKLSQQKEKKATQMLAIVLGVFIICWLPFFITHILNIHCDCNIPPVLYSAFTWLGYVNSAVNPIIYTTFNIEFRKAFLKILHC

| SMILES | inhibition at 0.005 µM [1] | inhibition at […] ([1]; antagonist concentration 15 nM) | inhibition at 0.05 µM [1] | inhibition at […] [1, 2] | inhibition at 0.5 µM [1] | inhibition at […] [1, 3] | inhibition at 5 µM [1] | inhibition at 15 µM [1] | Total Distance Traveled (center+periphery), ANOVA (C57Bl/6J mice) | Total Rearing (center+periphery), ANOVA (C57Bl/6J mice) |
| --- | --- | --- | --- | --- | --- | --- | --- | --- | --- | --- |
| C/C(=C\n1c2c(c3cc(Cl)ccc31)CN(C)CC2)c1ccc(F)cc1 [Compound 83, (E)-8-chloro-5-(2-(4-fluorophenyl)prop-1-enyl)-2,3,4,5-tetrahydro-2-methyl-1H-pyrido[4,3-b]indole] | 75.5% | 97.8% | 98.2% | 104% | 106% | 107% | 106% | 111% | significant treatment effect | significant treatment effect |
| C/C(=C\n1c2c(c3cc(C)ccc31)CN(C)CC2)c1ccncc1 [Compound 88, (E)-2,3,4,5-tetrahydro-2,8-dimethyl-5-(2-(pyridin-4-yl)prop-1-enyl)-1H-pyrido[4,3-b]indole] |  |  |  |  |  |  |  |  | significant treatment effect |  |
| C/C(=C\n1c2c(c3cc(Cl)ccc31)CN(C)CC2)c1ccncc1 [Compound 90, (E)-8-chloro-2,3,4,5-tetrahydro-2-methyl-5-(2-(pyridin-4-yl)prop-1-enyl)-1H-pyrido[4,3-b]indole] | 84.1% | 91.7% | 94.7% | 94% | 93.7% | 100% | 100% | 102% | significant treatment effect |  |

Reference: patent US8906925B2, “Pyrido[4,3-B]indoles containing rigid moieties” (Medivation Technologies, Inc., priority 2008, dated 2014)
